Laboratory results as given in patent US7462630B2, “Diarylalkene derivatives and novel diarylalkane derivatives” (Ajinomoto Co., Inc., priority 2001, dated 2008).

What was measured:
N-type calcium channel = target: T1, N-type calcium channel (Homo sapiens, UniProt Q00975); test: Antagonistic activity on N-type calcium channel (fluorescence dye method, KCl-stimulated intracellular calcium change in IMR-32 cells with 1 μM Nifedipine); assay type: cell-based; conditions: 10 μM test compound, 60 mM KCl stimulation, read-out: Antagonistic activity on N-type calcium channels at 10 μM inhibition rate (%)
T1 construct: host or cells: IMR-32 human neuroblastoma cells, differentiated with dibutyl cAMP and 5-bromodeoxyuridine
Protocol: Human neuroblastoma cells IMR-32 were obtained from ATCC (American Type Culture Collection). The medium used was a Phenol Red-free Eagle minimum essential medium containing earle's salts (GIBCO) supplemented with 2 mM of L-glutamine (GIBCO), 1 mM of sodium pyruvate (pH 6.5) (GIBCO), antibiotic/antimycotic mixture (GIBCO) and 10% fetal calf serum (Cell Culture Technologies). Three ml of 1×10^5 cells/ml IMR-32 cells were spread on the glass bottom of a dish (Iwaki Glsss Co., Ltd.) having a diameter of 35 mm which had been treated with poly-L-lysin (SIGMA) and collagen (COLLAGEN VITROGEN 100; Collagen Co.). After the culture for 1 day, 1 mM (final concentration) of dibutyl cAMP and 2.5 μM (final concentration) of 5-bromodeoxyuridine (SIGMA) were added. After the culture for additional 10 to 14 days, the cells were subjected to the activity determination.
The medium for IMR-32 cells thus prepared was replaced with 1 ml of Phenol Red-free Eale minimum essential medium (GIBCO) containing 2.5 μM fura-2/AM (Dojin Kagaku, Co.) and earle's salts supplement, and the incubation was conducted at 37° C. for 30 minutes. Then the medium was replaced with a recording medium (20 mM of HEPES-KOH, 115 mM of NaCl, 5.4 mM of KCl, 0.8 mM of MgCl2, 1.8 mM of CaCl2 and 13.8 mM of D-glucose). Antagonistic activity on N-type calcium channel was determined and analyzed using a fluorescence microscope (Nikon Corporation) and an image analysis device ARGUS 50 (Hamamatsu Photonics). In particular, a recording medium (20 mM of HEPES-KOH, 115 mM of NaCl, 5.4 mM of KCl, 0.8 mM of MgCl2, 1.8 mM of CaCl2 and 13.8 mM of D-glucose) containing 1 μM of Nifedipine was given to the cells by reflux by a Y-tube method for 2 minutes. Then a stimulating agent containing 60 mM of potassium chloride was rapidly given by the Y-tube method. The calcium concentration change in the cells in this step was shown as the N-type calcium channel activity. Then stimulating agents containing 60 mM of potassium chloride and 0.1, 1 or 10 μM of the test compound were successively and rapidly given to the cells by the Y-tube method to determine the change in the intracellular calcium concentration. The antagonistic activity on N-type calcium channel was calculated from the inhibition rate (%) at a concentration of 10 μM.

L-type calcium channel = target: T2, L-type calcium channel (Rattus norvegicus, UniProt P22002); test: Antagonistic activity on L-type calcium channel (relaxation response against KCl-induced contraction of isolated rat thoracic aorta); conditions: read-out: Antagonistic action on L-type calcium channels pIC50 (converted)
T2 construct: relaxation response against the KCl-induced contraction of isolated rat thoracic aorta was employed; from tissue; host or cells: endothelium-denuded thoracic aorta rings of Wistar rat
Protocol: The antagonistic activity of the new diarylalkene derivatives and diarylalkane derivatives of the present invention to inhibit L-type calcium channel was determined by the following method in which the relaxation response against the KCl-induced contraction of isolated rat thoracic aorta was employed.
The slips of thoracic aorta isolated from a Wistar rat were used. The aorta was cut to obtain ring-shaped samples having a width of about 3 mm. The endothelial cells of the samples were mechanically removed. The samples were suspended in a strain gage in Tyrode's solution (158.3 mM of NaCl, 4.0 mM of KCl, 1.05 mM of MgCl2, 0.42 mM of NaH2PO4, 10 mM of NaHCO3, 2 mM of CaCl2 and 5 mM of glucose) in which a gaseous mixture of O2 (95%) and CO2 (5%) was introduced. A static tension of 2 g was applied thereto. The tension of the blood vessel was amplified with a transducer and a tension amplifier (EF-601G; Nihon Koden Corporation) and recorded with a multi-pen recorder (Rikadenki Kogyo Co., Ltd.). The experiments were conducted at 37° C.
After the tension had been stabilized, the nutrient solution in the sample tank was replaced with High K^+ Tyrode's solution (112.3 mM of NaCl, 50 mM of KCl, 1.05 mM of MgCl2, 0.42 mM of NaH2PO4, 10 mM of NaHCO3, 2 mM of CaCl2 and 5 mM of glucose) to conduct the contraction reaction. Thirty minutes after, the solution in the sample tank was replaced with the normal Tyrode's solution. The solution in the sample tank was again replaced with the High K^+ Tyrode's solution and the contraction reaction was observed. After attaining the maximum contraction reaction, the test compound was cumulatively added at intervals of 90 minutes to attain concentrations of 10^−9, 10^−8, 10^−7 and 10^−6 M. The inhibitory rate of the test compound against the maximum contraction response was employed as the index of the antagonistic activity on L-type calcium channels.
The value of pIC50 indicates the antagonistic activity of the test compound, i. e. the negative logarithm of the concentration of the test compound necessitated for the 50% inhibition.

T2 sequence (P22002 whole entry): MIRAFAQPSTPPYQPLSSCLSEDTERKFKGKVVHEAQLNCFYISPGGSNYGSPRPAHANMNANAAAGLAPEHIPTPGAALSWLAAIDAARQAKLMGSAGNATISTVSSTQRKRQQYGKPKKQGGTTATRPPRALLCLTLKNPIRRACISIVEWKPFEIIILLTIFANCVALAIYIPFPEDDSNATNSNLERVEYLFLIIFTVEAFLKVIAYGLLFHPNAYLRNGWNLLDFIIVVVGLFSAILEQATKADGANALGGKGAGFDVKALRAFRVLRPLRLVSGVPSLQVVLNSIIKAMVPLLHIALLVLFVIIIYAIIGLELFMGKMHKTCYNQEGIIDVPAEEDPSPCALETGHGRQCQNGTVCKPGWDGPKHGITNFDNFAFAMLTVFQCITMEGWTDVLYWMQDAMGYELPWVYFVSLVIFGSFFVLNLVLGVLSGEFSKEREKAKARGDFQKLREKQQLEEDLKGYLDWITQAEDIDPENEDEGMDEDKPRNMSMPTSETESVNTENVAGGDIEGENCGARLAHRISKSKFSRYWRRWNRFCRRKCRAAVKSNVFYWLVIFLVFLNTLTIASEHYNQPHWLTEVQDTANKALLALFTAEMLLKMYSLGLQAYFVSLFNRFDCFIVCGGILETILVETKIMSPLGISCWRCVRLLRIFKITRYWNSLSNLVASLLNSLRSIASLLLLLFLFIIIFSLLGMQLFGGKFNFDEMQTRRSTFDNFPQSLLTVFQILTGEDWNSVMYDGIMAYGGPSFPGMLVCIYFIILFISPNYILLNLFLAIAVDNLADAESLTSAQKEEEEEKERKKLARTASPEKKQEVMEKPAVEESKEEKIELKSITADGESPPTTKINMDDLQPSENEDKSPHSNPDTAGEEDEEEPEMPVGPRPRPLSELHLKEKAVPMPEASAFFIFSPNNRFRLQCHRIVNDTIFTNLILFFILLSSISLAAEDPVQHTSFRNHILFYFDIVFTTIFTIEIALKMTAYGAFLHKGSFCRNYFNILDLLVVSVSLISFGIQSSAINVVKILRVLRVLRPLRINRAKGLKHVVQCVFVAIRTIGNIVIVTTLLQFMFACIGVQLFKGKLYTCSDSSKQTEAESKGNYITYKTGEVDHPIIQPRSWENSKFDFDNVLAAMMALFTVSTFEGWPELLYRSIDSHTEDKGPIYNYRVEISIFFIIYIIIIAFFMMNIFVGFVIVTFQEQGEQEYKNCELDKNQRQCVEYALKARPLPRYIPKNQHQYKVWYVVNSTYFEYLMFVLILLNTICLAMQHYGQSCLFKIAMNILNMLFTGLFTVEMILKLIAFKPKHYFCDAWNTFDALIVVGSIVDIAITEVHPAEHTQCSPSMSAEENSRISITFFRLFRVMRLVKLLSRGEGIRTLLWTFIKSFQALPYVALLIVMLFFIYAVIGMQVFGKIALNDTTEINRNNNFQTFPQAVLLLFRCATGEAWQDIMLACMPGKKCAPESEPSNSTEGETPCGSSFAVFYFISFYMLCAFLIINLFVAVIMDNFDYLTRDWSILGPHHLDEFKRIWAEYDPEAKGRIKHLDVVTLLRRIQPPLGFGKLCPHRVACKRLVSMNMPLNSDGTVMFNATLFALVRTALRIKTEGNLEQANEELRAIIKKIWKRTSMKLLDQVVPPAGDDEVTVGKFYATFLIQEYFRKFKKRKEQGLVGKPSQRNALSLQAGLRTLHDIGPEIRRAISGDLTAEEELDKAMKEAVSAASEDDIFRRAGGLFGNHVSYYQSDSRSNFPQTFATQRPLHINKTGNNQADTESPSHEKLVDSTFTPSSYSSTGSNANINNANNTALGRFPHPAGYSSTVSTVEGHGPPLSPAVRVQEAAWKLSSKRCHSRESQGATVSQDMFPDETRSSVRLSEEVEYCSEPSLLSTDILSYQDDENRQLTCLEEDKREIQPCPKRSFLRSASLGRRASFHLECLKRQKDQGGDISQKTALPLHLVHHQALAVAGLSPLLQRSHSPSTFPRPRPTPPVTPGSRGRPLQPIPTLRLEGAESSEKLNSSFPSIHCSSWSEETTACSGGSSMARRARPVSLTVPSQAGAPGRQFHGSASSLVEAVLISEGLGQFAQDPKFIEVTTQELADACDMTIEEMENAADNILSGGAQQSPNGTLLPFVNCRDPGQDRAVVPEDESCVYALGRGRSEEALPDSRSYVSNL
T2 sequence (P54287 whole entry partner): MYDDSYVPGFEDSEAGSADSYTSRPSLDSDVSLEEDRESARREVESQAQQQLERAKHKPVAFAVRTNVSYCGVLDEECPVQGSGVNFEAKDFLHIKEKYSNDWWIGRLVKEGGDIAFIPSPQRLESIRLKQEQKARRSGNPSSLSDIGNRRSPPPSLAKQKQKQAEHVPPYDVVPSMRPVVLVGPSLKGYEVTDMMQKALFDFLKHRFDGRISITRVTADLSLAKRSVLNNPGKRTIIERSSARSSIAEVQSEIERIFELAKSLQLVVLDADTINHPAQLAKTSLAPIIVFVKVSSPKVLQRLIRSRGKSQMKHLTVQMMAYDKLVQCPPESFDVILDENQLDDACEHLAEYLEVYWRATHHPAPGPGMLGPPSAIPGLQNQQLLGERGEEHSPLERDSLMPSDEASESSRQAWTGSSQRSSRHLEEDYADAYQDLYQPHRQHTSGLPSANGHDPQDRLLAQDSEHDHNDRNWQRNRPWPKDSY
T2 sequence (P54290 25-944 partner limits assumed): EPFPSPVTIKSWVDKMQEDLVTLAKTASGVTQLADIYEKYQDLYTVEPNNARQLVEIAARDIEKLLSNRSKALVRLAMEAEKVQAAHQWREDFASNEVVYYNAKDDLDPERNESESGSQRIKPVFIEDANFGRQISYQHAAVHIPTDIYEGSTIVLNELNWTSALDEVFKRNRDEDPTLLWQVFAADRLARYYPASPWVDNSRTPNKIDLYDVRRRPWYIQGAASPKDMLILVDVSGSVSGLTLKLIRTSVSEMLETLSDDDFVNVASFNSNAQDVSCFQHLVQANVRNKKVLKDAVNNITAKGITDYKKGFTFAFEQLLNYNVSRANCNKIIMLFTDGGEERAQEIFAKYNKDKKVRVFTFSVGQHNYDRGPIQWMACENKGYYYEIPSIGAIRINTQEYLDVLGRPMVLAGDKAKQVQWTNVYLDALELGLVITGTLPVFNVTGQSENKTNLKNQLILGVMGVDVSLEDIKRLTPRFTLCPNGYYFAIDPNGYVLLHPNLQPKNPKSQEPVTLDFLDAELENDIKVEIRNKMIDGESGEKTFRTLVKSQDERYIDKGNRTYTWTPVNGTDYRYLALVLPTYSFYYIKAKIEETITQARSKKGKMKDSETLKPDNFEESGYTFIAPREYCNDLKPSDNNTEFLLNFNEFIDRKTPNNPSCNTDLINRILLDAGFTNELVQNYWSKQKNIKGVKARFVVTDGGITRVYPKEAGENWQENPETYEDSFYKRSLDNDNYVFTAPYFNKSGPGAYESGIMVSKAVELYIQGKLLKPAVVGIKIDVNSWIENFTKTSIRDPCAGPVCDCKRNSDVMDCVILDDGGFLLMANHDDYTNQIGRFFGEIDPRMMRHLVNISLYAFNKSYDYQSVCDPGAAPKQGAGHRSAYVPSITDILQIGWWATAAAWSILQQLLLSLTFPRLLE
T2 sequence (P54290 945-1091 partner limits assumed): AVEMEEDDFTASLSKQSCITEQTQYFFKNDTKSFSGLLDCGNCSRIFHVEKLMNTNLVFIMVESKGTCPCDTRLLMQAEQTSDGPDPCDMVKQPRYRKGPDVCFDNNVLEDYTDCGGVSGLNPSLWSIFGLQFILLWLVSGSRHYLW

| Compound | inhibition at 10 µM (N-type calcium channel) [%] | IC50 (L-type calcium channel) [nM] |
| --- | --- | --- |
| CC(C)(C)C(=O)NCCC(=O)N1CCC(=C2c3ccccc3C=Cc3ccccc32)CC1 [Example 11, N-{3-[4-(5H-dibenzo[a,d][7]annulen-5-ylidene)-1-piperidinyl]-3-oxopropyl}-2,2-dimethylpropanamide] | 77 | 398 |
| CC(C)(C)C(=O)N[C@H](CO)CCC(=O)N1CCC(=C2c3ccccc3C=Cc3ccccc32)CC1 [Example 71, (S)-N-[4-[4-(5H-dibenzo[a,d][7]annulen-5-ylidene)-1-piperidinyl]-1-(hydroxylmethyl)-4-oxobutyl]-2.2-dimethylpropanamide] | 74 | 1260 |
